Test results: patent publication US20220125959A1, “PROSTATE-SPECIFIC MEMBRANE ANTIGEN (PSMA) INHIBITORS AS DIAGNOSTIC AND RADIONUCLIDE THERAPEUTIC AGENTS” (FIVE ELEVEN PHARMA INC., priority 2019, published 2022)

Legend:
[1] = test system: PSMA-positive cell line, PIP PC3; test: In vitro cell uptake, PIP PC3 cells; type: cell-based
Protocol: To determine the cell uptakes of the [^177Lu] labelled ligands, 5×10^5 cells/well were grown in 12-well plates in 1 mL of medium for 48 h. The cells were washed twice with PBS, and 900 μL fresh media were added. […] All samples were prepared in triplicate. Following the incubation at 37° C., cells were washed twice to remove unbound activity and afterwards lysed in 1 mL of 0.5 M NaOH. Activity was measured in a gamma counter. Aliquots of the solution added to the cells were also measured for the calculation of the cellular uptake as % ID.

[2] = test system: PSMA-negative cell line, PC3; test: In vitro cell uptake, PC3 cells; type: cell-based; settings: PC3 (do not express PSMA), 60 min
Protocol: To determine the cell uptakes of the [^177Lu] labelled ligands, 5×10^5 cells/well were grown in 12-well plates in 1 mL of medium for 48 h. The cells were washed twice with PBS, and 900 μL fresh media were added. Radiolabelled ligand was added and the PSMA-inhibitor (2-PMPA) was applied in a final concentration of 10 μM to determine unspecific binding. All samples were prepared in triplicate. Following the incubation at 37° C., cells were washed twice to remove unbound activity and afterwards lysed in 1 mL of 0.5 M NaOH. Activity was measured in a gamma counter. Aliquots of the solution added to the cells were also measured for the calculation of the cellular uptake as % ID.

[3] = test system: PC3-PIP (PSMA positive) and PC-3 tumors (PSMA negative); test: Biodistribution of 177Lu labeled compounds 42 and 51 in tumor bearing nude mice; type: in vivo, CD-1 male nude mice
Protocol: For iv injection 150 μL of labeled solution was diluted with saline to 3.75mL. Mice were injected with 150 μL of formulated dose. Injected radioactivity was 100 μCi and PSMA ligand amount was constant at 0.72 nmole/mouse.
Similarly, the tissue distribution of [^177Lu]42 and [^177Lu]51 was evaluated in mice bearing PIP PC3 (PSMA positive) and PC3 (PSMA negative) tumors on the left and right shoulder, respectively, over a period of 24 h (Table 4). […] The tumor specific uptake for [^177Lu]51 was higher than that observed for [^177Lu]42. […] Results of this study lend support for using these dual-targeted ^177Lu labeled agents for treatment of metastatic prostate cancer.

[4] = Stability of injected doses after formulation; type: physicochemical; settings: at 24 hr after formulation
Summary of the method: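 Ligand labeled with ^68Ga (90° C, 10 min) or ^177Lu (95° C, 1 hour) in NaOAc; radiochemical purity checked by radio-HPLC, with stability of formulated doses followed to 2 hr (^68Ga) or 48 hr (^177Lu). Mice received iv 100 μCi, 0.72 nmole ligand/mouse.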

[5] = PIP PC3, 60 min, with PSMA inhibitor (2-PMPA, 2 uM)

O=C(O)CC[C@H](NC(=O)N[C@@H](CCCCNC(=O)[C@H](Cc1ccccc1)NC(=O)COc1ccc(C[C@H](NC(=O)CNC(=O)CCC(C(=O)O)N2CCN(CC(=O)O)CCN(CC(=O)O)CCN(CC(=O)O)CC2)C(=O)NCC(=O)NC(P(=O)(O)O)P(=O)(O)O)cc1)C(=O)O)C(=O)O.[177Lu] (stereo partly shown) [[^177Lu]51]
Uptakes compared with reference ligand [177Lu]PSMA-617 ([1]; PIP PC3): much higher uptakes
In vitro cell uptake ([1]; PIP PC3, 5 min): 4.4 % ID per 5 × 10^5 cells
In vitro cell uptake ([1]; PIP PC3, 15 min): 8.4 % ID per 5 × 10^5 cells
In vitro cell uptake ([1]; PIP PC3, 30 min): 13.4 % ID per 5 × 10^5 cells
In vitro cell uptake ([1]; PIP PC3, 60 min): 17.4 % ID per 5 × 10^5 cells
In vitro cell uptake [1, 5]: 1.1 % ID per 5 × 10^5 cells
In vitro cell uptake ([1]; PIP PC3, 120 min): 19.3 % ID per 5 × 10^5 cells
In vitro cell uptake [2]: 0.7 % ID per 5 × 10^5 cells
Biodistribution: Blood ([3]; 1 hr): 0.18 ± 0.04 % dose/g
Biodistribution: Bone ([3]; 1 hr): 6.52 ± 0.34 % dose/g
Biodistribution: Heart ([3]; 1 hr): 0.20 ± 0.06 % dose/g
Biodistribution: Kidney ([3]; 1 hr): 90.59 ± 18.47 % dose/g
Biodistribution: Lg Intestine ([3]; 1 hr): 0.10 ± 0.04 % dose/g
Biodistribution: Liver ([3]; 1 hr): 0.23 ± 0.03 % dose/g
Biodistribution: Lung ([3]; 1 hr): 0.62 ± 0.09 % dose/g
Biodistribution: Muscle ([3]; 1 hr): 0.11 ± 0.03 % dose/g
Biodistribution: PC3 tumor ([3]; 1 hr): 0.53 ± 0.12 % dose/g
Biodistribution: PIP PC3 tumor ([3]; 1 hr): 14.70 ± 1.29 % dose/g
Biodistribution: Pancreas ([3]; 1 hr): 0.37 ± 0.11 % dose/g
Biodistribution: Skin ([3]; 1 hr): 0.35 ± 0.05 % dose/g
Biodistribution: Sm Intestine ([3]; 1 hr): 0.16 ± 0.03 % dose/g
Biodistribution: Spleen ([3]; 1 hr): 1.33 ± 0.41 % dose/g
Biodistribution: Stomach ([3]; 1 hr): 0.11 ± 0.03 % dose/g
Biodistribution: Blood ([3]; 4 hr): 0.03 ± 0.01 % dose/g
Biodistribution: Bone ([3]; 4 hr): 6.74 ± 0.71 % dose/g
Biodistribution: Heart ([3]; 4 hr): 0.05 ± 0.00 % dose/g
Biodistribution: Kidney ([3]; 4 hr): 35.24 ± 5.28 % dose/g
Biodistribution: Lg Intestine ([3]; 4 hr): 0.22 ± 0.15 % dose/g
Biodistribution: Liver ([3]; 4 hr): 0.16 ± 0.00 % dose/g
Biodistribution: Lung ([3]; 4 hr): 0.20 ± 0.06 % dose/g
Biodistribution: Muscle ([3]; 4 hr): 0.03 ± 0.00 % dose/g
Biodistribution: PC3 tumor ([3]; 4 hr): 0.20 ± 0.03 % dose/g
Biodistribution: PIP PC3 tumor ([3]; 4 hr): 15.12 ± 1.36 % dose/g
Biodistribution: Pancreas ([3]; 4 hr): 0.11 ± 0.03 % dose/g
Biodistribution: Skin ([3]; 4 hr): 0.11 ± 0.01 % dose/g
Biodistribution: Sm Intestine ([3]; 4 hr): 0.21 ± 0.29 % dose/g
Biodistribution: Spleen ([3]; 4 hr): 0.39 ± 0.12 % dose/g
Biodistribution: Stomach ([3]; 4 hr): 0.26 ± 0.23 % dose/g
Biodistribution: Blood ([3]; 24 hr): 0.00 ± 0.00 % dose/g
Biodistribution: Bone ([3]; 24 hr): 5.51 ± 0.66 % dose/g
Biodistribution: Heart ([3]; 24 hr): 0.03 ± 0.01 % dose/g
Biodistribution: Kidney ([3]; 24 hr): 4.18 ± 1.74 % dose/g
Biodistribution: Lg Intestine ([3]; 24 hr): 0.49 ± 0.34 % dose/g
Biodistribution: Liver ([3]; 24 hr): 0.14 ± 0.02 % dose/g
Biodistribution: Lung ([3]; 24 hr): 0.10 ± 0.04 % dose/g
Biodistribution: Muscle ([3]; 24 hr): 0.02 ± 0.00 % dose/g
Biodistribution: PC3 tumor ([3]; 24 hr): 0.16 ± 0.02 % dose/g
Biodistribution: PIP PC3 tumor ([3]; 24 hr): 10.75 ± 2.52 % dose/g
Biodistribution: Pancreas ([3]; 24 hr): 0.03 ± 0.00 % dose/g
Biodistribution: Skin ([3]; 24 hr): 0.07 ± 0.02 % dose/g
Biodistribution: Sm Intestine ([3]; 24 hr): 0.30 ± 0.33 % dose/g
Biodistribution: Spleen ([3]; 24 hr): 0.15 ± 0.04 % dose/g
Biodistribution: Stomach ([3]; 24 hr): 0.40 ± 0.56 % dose/g
Bone uptake compared with [177Lu]42 ([3]; mouse, in vivo): consistently higher
PC3 (PSMA negative) tumor uptake ([3]; mouse, in vivo): very low uptake
PIP PC3 (PSMA positive) tumor uptake ([3]; mouse, in vivo): excellent
Tumor specific uptake compared with [177Lu]42 ([3]; mouse, in vivo): higher
Uptake in bone ([3]; mouse, in vivo): high specific uptake in bone
Stability of injected doses [4]: stable

O=C([O-])CN1CCN(C(CCC(=O)NCC(=O)NC(Cc2ccc(OCC(=O)NC(Cc3ccccc3)C(=O)NCCCCC(NC(=O)NC(CCC(=O)O)C(=O)O)C(=O)O)cc2)C(=O)O)C(=O)[O-])CCN(CC(=O)[O-])CCN(C(CCC(=O)NCC(=O)NC(P(=O)(O)O)P(=O)(O)O)C(=O)O)CC1.[177Lu+3] (stereo not shown) [[^177Lu]42]
In vitro cell uptake ([1]; PIP PC3, 5 min): 3.3 % ID per 5 × 10^5 cells
In vitro cell uptake ([1]; PIP PC3, 15 min): 5.5 % ID per 5 × 10^5 cells
In vitro cell uptake ([1]; PIP PC3, 30 min): 7.6 % ID per 5 × 10^5 cells
In vitro cell uptake ([1]; PIP PC3, 60 min): 8.6 % ID per 5 × 10^5 cells
In vitro cell uptake [1, 5]: 0.9 % ID per 5 × 10^5 cells
In vitro cell uptake ([1]; PIP PC3, 120 min): 9.8 % ID per 5 × 10^5 cells
In vitro cell uptake [2]: 0.8 % ID per 5 × 10^5 cells
Biodistribution: Blood ([3]; 1 hr): 0.18 ± 0.05 % dose/g
Biodistribution: Bone ([3]; 1 hr): 5.82 ± 1.59 % dose/g
Biodistribution: Heart ([3]; 1 hr): 0.13 ± 0.03 % dose/g
Biodistribution: Kidney ([3]; 1 hr): 27.52 ± 7.47 % dose/g
Biodistribution: Lg Intestine ([3]; 1 hr): 0.11 ± 0.03 % dose/g
Biodistribution: Liver ([3]; 1 hr): 0.12 ± 0.02 % dose/g
Biodistribution: Lung ([3]; 1 hr): 0.38 ± 0.11 % dose/g
Biodistribution: Muscle ([3]; 1 hr): 0.08 ± 0.02 % dose/g
Biodistribution: PC3 tumor ([3]; 1 hr): 0.41 ± 0.10 % dose/g
Biodistribution: PIP PC3 tumor ([3]; 1 hr): 11.29 ± 2.44 % dose/g
Biodistribution: Pancreas ([3]; 1 hr): 0.20 ± 0.09 % dose/g
Biodistribution: Skin ([3]; 1 hr): 0.22 ± 0.05 % dose/g
Biodistribution: Sm Intestine ([3]; 1 hr): 0.24 ± 0.15 % dose/g
Biodistribution: Spleen ([3]; 1 hr): 0.53 ± 0.17 % dose/g
Biodistribution: Stomach ([3]; 1 hr): 0.17 ± 0.07 % dose/g
Biodistribution: Blood ([3]; 4 hr): 0.02 ± 0.01 % dose/g
Biodistribution: Bone ([3]; 4 hr): 5.62 ± 1.18 % dose/g
Biodistribution: Heart ([3]; 4 hr): 0.06 ± 0.02 % dose/g
Biodistribution: Kidney ([3]; 4 hr): 11.81 ± 5.81 % dose/g
Biodistribution: Lg Intestine ([3]; 4 hr): 1.03 ± 1.01 % dose/g
Biodistribution: Liver ([3]; 4 hr): 0.08 ± 0.02 % dose/g
Biodistribution: Lung ([3]; 4 hr): 0.13 ± 0.04 % dose/g
Biodistribution: Muscle ([3]; 4 hr): 0.05 ± 0.04 % dose/g
Biodistribution: PC3 tumor ([3]; 4 hr): 0.28 ± 0.11 % dose/g
Biodistribution: PIP PC3 tumor ([3]; 4 hr): 7.62 ± 1.60 % dose/g
Biodistribution: Pancreas ([3]; 4 hr): 0.05 ± 0.02 % dose/g
Biodistribution: Skin ([3]; 4 hr): 0.10 ± 0.03 % dose/g
Biodistribution: Sm Intestine ([3]; 4 hr): 0.94 ± 1.12 % dose/g
Biodistribution: Spleen ([3]; 4 hr): 0.18 ± 0.06 % dose/g
Biodistribution: Stomach ([3]; 4 hr): 0.49 ± 0.60 % dose/g
Biodistribution: Blood ([3]; 24 hr): 0.00 ± 0.00 % dose/g
Biodistribution: Bone ([3]; 24 hr): 4.55 ± 0.26 % dose/g
Biodistribution: Heart ([3]; 24 hr): 0.03 ± 0.01 % dose/g
Biodistribution: Kidney ([3]; 24 hr): 2.62 ± 0.19 % dose/g
Biodistribution: Lg Intestine ([3]; 24 hr): 0.37 ± 0.20 % dose/g
Biodistribution: Liver ([3]; 24 hr): 0.06 ± 0.00 % dose/g
Biodistribution: Lung ([3]; 24 hr): 0.04 ± 0.01 % dose/g
Biodistribution: Muscle ([3]; 24 hr): 0.03 ± 0.02 % dose/g
Biodistribution: PC3 tumor ([3]; 24 hr): 0.11 ± 0.04 % dose/g
Biodistribution: PIP PC3 tumor ([3]; 24 hr): 4.72 ± 1.68 % dose/g
Biodistribution: Pancreas ([3]; 24 hr): 0.01 ± 0.00 % dose/g
Biodistribution: Skin ([3]; 24 hr): 0.05 ± 0.01 % dose/g
Biodistribution: Sm Intestine ([3]; 24 hr): 0.06 ± 0.05 % dose/g
Biodistribution: Spleen ([3]; 24 hr): 0.04 ± 0.01 % dose/g
Biodistribution: Stomach ([3]; 24 hr): 0.14 ± 0.10 % dose/g
PC3 (PSMA negative) tumor uptake ([3]; mouse, in vivo): very low uptake
PIP PC3 (PSMA positive) tumor uptake ([3]; mouse, in vivo): excellent
Uptake in bone ([3]; mouse, in vivo): high specific uptake in bone
Stability of injected doses [4]: stable
